Measurements reported in patent US8138377B2, “Arylbicyclo[3.1.0]hexylamines and methods and compositions for their preparation and use” (DOV Pharmaceutical, Inc., priority 2007, dated 2012).

Tests used:
[1] = target: T1, norepinephrine (NE) transport (Rattus norvegicus, UniProt Q63380); assay: Inhibition of [3H]NE uptake in rat hypothalamus synaptosomes; type: biochemical
T1 construct: synaptosomal preparations were made from either whole brain (5-HT), striatum (DA) or hypothalamus (NE); from tissue; host or cells: rat hypothalamus synaptosomes
Description: (§1) The effects of arylbicyclo[3.1.0]hexylamines of the invention for inhibiting transport of norepinephrine (NE) and/or dopamine (DA) and/or serotonin (5-HT) were evaluated using preparations of synaptosomes from different regions of the rat brain according to previously-reported techniques.
(§2) Whole brains were obtained from normal rats, and synaptosomal preparations were made from either whole brain (5-HT), striatum (DA) or hypothalamus (NE) by gentle disruption in 10 volumes (w/v) of 0.32 M sucrose (0-4° C.) using a Teflon-glass homogenizer. The homogenate was then centrifuged at 1000×g for 10 min. The supernatant was retained and centrifuged at 23000 g for 20 min. The resulting pellet was gently resuspended in 200 volumes of 0.32 M sucrose (0-4° C.) using a teflon-glass homogenizer. Aliquots (250 μL) of this preparation were added to tubes, along with 0.2 μCi/mL of [^3H]5-HT, [^3H]DA, or [^3H]NE, 200 μL of selected 1-arylbicyclo[3.1.0]hexanamine test compounds (to yield final concentrations of 500 nM) and 1 mL of Krebs-Ringer bicarbonate buffer (pH 7.4). […] At the end of this period, the assay was terminated by rapid filtration over Whatman GF/C glass fiber filters. The filters were rinsed 3 times with 4 ml of Krebs-Ringer bicarbonate buffer (0-4° C.), and the radioactivity retained on the filters was measured by liquid scintillation spectrometry.

[2] = target: T2, serotonin (5-HT) transport (Rattus norvegicus, UniProt P31652); assay: biochemical
T2 construct: synaptosomal preparations were made from either whole brain (5-HT), striatum (DA) or hypothalamus (NE); from tissue; host or cells: rat whole brain synaptosomes
Description: as §1, §2

[3] = target: T3, dopamine (DA) transport (Rattus norvegicus, UniProt P23977); assay: biochemical
T3 construct: synaptosomal preparations were made from either whole brain (5-HT), striatum (DA) or hypothalamus (NE); from tissue; host or cells: rat striatum synaptosomes
Description: as §1, §2

T3 sequence (P23977 whole entry): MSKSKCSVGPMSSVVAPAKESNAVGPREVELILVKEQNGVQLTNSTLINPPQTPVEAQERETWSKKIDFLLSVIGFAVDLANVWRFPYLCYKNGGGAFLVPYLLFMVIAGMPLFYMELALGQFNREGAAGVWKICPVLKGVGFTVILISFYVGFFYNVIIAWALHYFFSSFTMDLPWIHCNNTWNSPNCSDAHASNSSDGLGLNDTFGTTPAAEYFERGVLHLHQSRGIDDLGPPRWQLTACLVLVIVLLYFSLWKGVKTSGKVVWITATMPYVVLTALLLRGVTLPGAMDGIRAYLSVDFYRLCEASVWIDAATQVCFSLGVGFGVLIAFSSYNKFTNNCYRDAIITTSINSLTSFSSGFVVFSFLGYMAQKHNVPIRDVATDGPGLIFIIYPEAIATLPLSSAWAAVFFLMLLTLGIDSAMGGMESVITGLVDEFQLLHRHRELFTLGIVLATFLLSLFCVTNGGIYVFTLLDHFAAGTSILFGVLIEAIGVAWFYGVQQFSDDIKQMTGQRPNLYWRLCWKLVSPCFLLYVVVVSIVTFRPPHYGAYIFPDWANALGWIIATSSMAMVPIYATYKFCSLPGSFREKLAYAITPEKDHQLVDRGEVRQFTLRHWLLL
T2 sequence (P31652 whole entry): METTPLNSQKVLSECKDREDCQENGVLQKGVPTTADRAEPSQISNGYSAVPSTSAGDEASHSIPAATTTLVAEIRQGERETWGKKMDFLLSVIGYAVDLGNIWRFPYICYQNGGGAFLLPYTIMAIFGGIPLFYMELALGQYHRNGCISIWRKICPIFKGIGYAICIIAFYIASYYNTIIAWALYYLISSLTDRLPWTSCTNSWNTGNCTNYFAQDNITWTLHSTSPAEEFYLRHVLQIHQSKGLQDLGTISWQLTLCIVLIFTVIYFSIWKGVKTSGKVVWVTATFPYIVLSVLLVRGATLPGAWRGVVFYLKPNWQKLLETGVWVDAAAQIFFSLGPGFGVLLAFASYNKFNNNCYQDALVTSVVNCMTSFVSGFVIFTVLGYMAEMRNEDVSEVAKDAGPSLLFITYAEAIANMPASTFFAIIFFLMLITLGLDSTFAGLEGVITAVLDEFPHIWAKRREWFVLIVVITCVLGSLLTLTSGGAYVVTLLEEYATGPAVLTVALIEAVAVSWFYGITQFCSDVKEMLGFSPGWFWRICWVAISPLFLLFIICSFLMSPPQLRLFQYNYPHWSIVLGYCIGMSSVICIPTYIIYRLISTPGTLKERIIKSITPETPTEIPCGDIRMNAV
T1 sequence (Q63380 1-617): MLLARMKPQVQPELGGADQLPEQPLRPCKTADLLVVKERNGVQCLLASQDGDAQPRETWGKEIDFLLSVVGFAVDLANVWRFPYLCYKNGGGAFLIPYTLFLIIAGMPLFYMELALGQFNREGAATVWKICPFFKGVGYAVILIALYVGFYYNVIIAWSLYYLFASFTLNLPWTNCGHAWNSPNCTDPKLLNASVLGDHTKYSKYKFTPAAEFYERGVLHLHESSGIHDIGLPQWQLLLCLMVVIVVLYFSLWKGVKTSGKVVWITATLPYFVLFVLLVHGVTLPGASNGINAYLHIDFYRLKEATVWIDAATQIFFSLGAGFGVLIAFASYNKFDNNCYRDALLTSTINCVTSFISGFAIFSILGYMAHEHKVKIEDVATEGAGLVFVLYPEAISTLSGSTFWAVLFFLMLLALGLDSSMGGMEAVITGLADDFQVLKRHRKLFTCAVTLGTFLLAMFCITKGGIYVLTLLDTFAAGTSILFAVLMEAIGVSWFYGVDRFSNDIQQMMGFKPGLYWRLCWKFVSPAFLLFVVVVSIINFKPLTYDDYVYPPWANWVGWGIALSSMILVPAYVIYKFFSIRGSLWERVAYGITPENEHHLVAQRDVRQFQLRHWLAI

CNC1CC2CC2(c2cccc3ccccc23)C1 (stereo not drawn)
IC50 [1]: 74 nM | inhibition at 0.5 µM ([1]; 500 nM, 20 min, 37° C.): 81% | IC50 [2]: 76 nM | inhibition at 0.5 µM ([2]; read-out: Uptake Inhibition % at 500 nM 5-HT): 82% | IC50 [3]: 8730 nM | inhibition at 0.5 µM ([3]; read-out: Uptake Inhibition % at 500 nM DA): 23%
